Data taken from ChEMBL document CHEMBL3885861, “Open TG-GATES”.

Organism: Rattus norvegicus
Test: Open TG-GATES - Regimen: Single
Assay type: toxicity, organism-based, Sprague-Dawley
Set-up: regimen Single, gender Male, age 6 weeks
Settings: in vivo, po, route gavage; for APTT / Bas / Eos / Fbg / Hb / Ht / Lym / MCH / MCHC / MCV / Mono / Neu / PT / Plat / RBC / Ret / WBC: tissue Blood; for KIDNEY_L / KIDNEY_R / KIDNEY_TOTAL: tissue Kidney; for LIVER: tissue Liver; for ALP / ALT / AST / BUN / CRE / Ca / Cl / DBIL / GLC / IP / K / LDH / Na / PL / RALB / TBIL / TC / TG / TP / gamma-GTP: tissue Plasma
[1] = 0 mg/kg, 3 h, dose level Control
[2] = 0 mg/kg, 6 h, dose level Control
[3] = 0 mg/kg, 9 h, dose level Control
[4] = 0 mg/kg, 24 h, dose level Control
[5] = 100 mg/kg, 24 h, dose level Low

## COC(=O)C1=C(C)NC(C)=C(C(=O)OC)C1c1ccccc1[N+](=O)[O-] [NIFEDIPINE]
[1]
  TERMINAL_BW: 197.5 g
  APTT: 16.4 s
  Bas: 0.2%
  Eos: 0.8%
  Fbg: 271 mg/dL
  Hb: 13.3 g/dL
  Ht: 41.5%
  Lym: 74.2%
  MCH: 20.8 pg
  MCHC: 32.1%
  MCV: 64.8 fL
  Mono: 2.6%
  Neu: 21.2%
  PT: 14.8 s
  Plat: 120 x10_4/uL
  RBC: 641.4 x10_4/ul
  Ret: 8.7%
  WBC: 85.8 x10_2/uL
  KIDNEY_L: 0.9 g
  KIDNEY_R: 0.9 g
  KIDNEY_TOTAL: 1.8 g
  LIVER: 8.4 g
  ALP: 1457.4 IU/L
  ALT: 49.6 IU/L
  AST: 81.8 IU/L
  BUN: 9.4 mg/dL
  CRE: 0.2 mg/dL
  Ca: 10.6 mg/dL
  Cl: 105.6 meq/L
  DBIL: 0.012 mg/dL
  GLC: 178.4 mg/dL
  IP: 9.6 mg/dL
  K: 4.4 meq/L
  LDH: 90.8 IU/L
  Na: 142 meq/L
  PL: 128.2 mg/dL
  RALB: 2.5 g/dL
  TBIL: 0.044 mg/dL
  TC: 70.2 mg/dL
  TG: 42.4 mg/dL
  TP: 5.2 g/dL
  gamma-GTP: 1 IU/L
[2]
  TERMINAL_BW: 197 g
  APTT: 16.6 s
  Bas: 0.2%
  Eos: 1%
  Fbg: 298 mg/dL
  Hb: 13.5 g/dL
  Ht: 42.2%
  Lym: 71.2%
  MCH: 21.1 pg
  MCHC: 32%
  MCV: 65.8 fL
  Mono: 3.2%
  Neu: 23.6%
  PT: 15 s
  Plat: 127.7 x10_4/uL
  RBC: 641.2 x10_4/ul
  Ret: 8.8%
  WBC: 94.9 x10_2/uL
  KIDNEY_L: 0.9 g
  KIDNEY_R: 0.9 g
  KIDNEY_TOTAL: 1.7 g
  LIVER: 8.2 g
  ALP: 1485.2 IU/L
  ALT: 43.4 IU/L
  AST: 71 IU/L
  BUN: 9 mg/dL
  CRE: 0.2 mg/dL
  Cl: 107.4 meq/L
  DBIL: 0.008 mg/dL
  GLC: 177.8 mg/dL
  IP: 9.7 mg/dL
  K: 4.2 meq/L
  LDH: 70.4 IU/L
  Na: 144 meq/L
  PL: 139.8 mg/dL
  RALB: 2.5 g/dL
  TBIL: 0.036 mg/dL
  TC: 78.8 mg/dL
  TG: 56 mg/dL
  TP: 5.4 g/dL
  gamma-GTP: 1 IU/L
[3]
  TERMINAL_BW: 193.8 g
  APTT: 16 s
  Bas: 0%
  Eos: 1%
  Fbg: 297 mg/dL
  Hb: 13.1 g/dL
  Ht: 40.6%
  Lym: 80.6%
  MCH: 21 pg
  MCHC: 32.4%
  MCV: 65 fL
  Mono: 2%
  Neu: 15.8%
  PT: 14.7 s
  Plat: 120.3 x10_4/uL
  RBC: 626.4 x10_4/ul
  Ret: 9%
  WBC: 65.5 x10_2/uL
  KIDNEY_L: 0.9 g
  KIDNEY_R: 0.9 g
  KIDNEY_TOTAL: 1.7 g
  LIVER: 7.4 g
  ALP: 1438.2 IU/L
  ALT: 35.6 IU/L
  AST: 67 IU/L
  BUN: 8.2 mg/dL
  CRE: 0.2 mg/dL
  Ca: 10.4 mg/dL
  Cl: 106.6 meq/L
  DBIL: 0.002 mg/dL
  GLC: 162.8 mg/dL
  IP: 10.2 mg/dL
  K: 3.7 meq/L
  LDH: 61.4 IU/L
  Na: 143.4 meq/L
  PL: 130.6 mg/dL
  RALB: 2.5 g/dL
  TBIL: 0.04 mg/dL
  TC: 79 mg/dL
  TG: 18.4 mg/dL
  TP: 5.3 g/dL
  gamma-GTP: 1.2 IU/L
[4]
  TERMINAL_BW: 213.5 g
  APTT: 16.3 s
  Bas: 0%
  Eos: 1%
  Fbg: 285.8 mg/dL
  Hb: 13.1 g/dL
  Ht: 40.6%
  Lym: 73.2%
  MCH: 21.2 pg
  MCHC: 32.3%
  MCV: 65.5 fL
  Mono: 3%
  Neu: 21.8%
  PT: 14.2 s
  Plat: 118.4 x10_4/uL
  RBC: 620 x10_4/ul
  Ret: 8.7%
  WBC: 87.2 x10_2/uL
  KIDNEY_L: 0.9 g
  KIDNEY_R: 0.9 g
  KIDNEY_TOTAL: 1.8 g
  LIVER: 9.6 g
  ALP: 1663.2 IU/L
  ALT: 44 IU/L
  AST: 75 IU/L
  BUN: 15.2 mg/dL
  CRE: 0.2 mg/dL
  Ca: 11 mg/dL
  Cl: 106.6 meq/L
  DBIL: 0.018 mg/dL
  GLC: 187 mg/dL
  IP: 8.3 mg/dL
  K: 4.3 meq/L
  LDH: 67.4 IU/L
  Na: 145.6 meq/L
  PL: 156.8 mg/dL
  RALB: 2.7 g/dL
  TBIL: 0.03 mg/dL
  TC: 87.8 mg/dL
  TG: 62.6 mg/dL
  TP: 5.7 g/dL
  gamma-GTP: 1 IU/L
100 mg/kg, 3 h, dose level Low
  TERMINAL_BW: 201.3 g
  Bas: 0%
  Eos: 1%
  Fbg: 279.6 mg/dL
  Hb: 12.9 g/dL
  Ht: 39.2%
  Lym: 71.8%
  MCH: 20.6 pg
  MCHC: 32.8%
  MCV: 62.6 fL
  Mono: 4.4%
  PT: 14.9 s
  Plat: 123.6 x10_4/uL
  RBC: 625.8 x10_4/ul
  Ret: 9.3%
  WBC: 127.1 x10_2/uL
  KIDNEY_L: 0.9 g
  KIDNEY_R: 0.9 g
  KIDNEY_TOTAL: 1.8 g
  LIVER: 7.9 g
  ALP: 1399 IU/L
  ALT: 44.8 IU/L
  AST: 78.6 IU/L
  CRE: 0.3 mg/dL
  Ca: 11.7 mg/dL
  Cl: 98.2 meq/L
  DBIL: 0.01 mg/dL
  GLC: 227.6 mg/dL
  IP: 9 mg/dL
  K: 4.7 meq/L
  LDH: 89.4 IU/L
  Na: 135.6 meq/L
  PL: 132 mg/dL
  RALB: 2.5 g/dL
  TBIL: 0.042 mg/dL
  TC: 76.2 mg/dL
  TG: 31.6 mg/dL
  TP: 5.3 g/dL
  gamma-GTP: 1.2 IU/L
100 mg/kg, 6 h, dose level Low
  TERMINAL_BW: 203.8 g
  APTT: 16.8 s
  Bas: 0%
  Eos: 0.4%
  Fbg: 278.2 mg/dL
  Hb: 12.8 g/dL
  Ht: 39.2%
  Lym: 76.2%
  MCH: 20.2 pg
  MCHC: 32.6%
  MCV: 61.7 fL
  Mono: 3.6%
  Neu: 18.6%
  PT: 15 s
  Plat: 124 x10_4/uL
  RBC: 634.8 x10_4/ul
  Ret: 9.2%
  WBC: 96.4 x10_2/uL
  KIDNEY_L: 0.9 g
  KIDNEY_R: 0.9 g
  KIDNEY_TOTAL: 1.7 g
  LIVER: 7.8 g
  ALP: 1423.2 IU/L
  ALT: 54.6 IU/L
  AST: 82.2 IU/L
  BUN: 32.4 mg/dL
  CRE: 0.2 mg/dL
  Ca: 11.3 mg/dL
  Cl: 98.6 meq/L
  DBIL: 0.01 mg/dL
  GLC: 220.6 mg/dL
  IP: 10.7 mg/dL
  K: 5.2 meq/L
  LDH: 72.8 IU/L
  Na: 135.8 meq/L
  PL: 141.2 mg/dL
  RALB: 2.6 g/dL
  TBIL: 0.042 mg/dL
  TC: 86.4 mg/dL
  TG: 20.8 mg/dL
  TP: 5.5 g/dL
  gamma-GTP: 1.2 IU/L
100 mg/kg, 9 h, dose level Low
  TERMINAL_BW: 204.8 g
  APTT: 15.8 s
  Bas: 0%
  Eos: 0.6%
  Fbg: 292.2 mg/dL
  Hb: 12.7 g/dL
  Ht: 38.7%
  Lym: 80.2%
  MCH: 20.8 pg
  MCHC: 32.9%
  MCV: 63.3 fL
  Mono: 2.8%
  Neu: 14.8%
  PT: 14.6 s
  Plat: 127.7 x10_4/uL
  RBC: 610.8 x10_4/ul
  Ret: 9.7%
  WBC: 116.7 x10_2/uL
  KIDNEY_L: 0.9 g
  KIDNEY_R: 0.9 g
  KIDNEY_TOTAL: 1.7 g
  LIVER: 7.4 g
  ALP: 1305.6 IU/L
  ALT: 46.4 IU/L
  AST: 75.6 IU/L
  BUN: 17.8 mg/dL
  CRE: 0.2 mg/dL
  Ca: 10.9 mg/dL
  Cl: 102 meq/L
  DBIL: 0.008 mg/dL
  GLC: 178.6 mg/dL
  IP: 10.8 mg/dL
  K: 4.6 meq/L
  LDH: 76 IU/L
  Na: 138.6 meq/L
  PL: 152 mg/dL
  RALB: 2.6 g/dL
  TBIL: 0.046 mg/dL
  TC: 90.6 mg/dL
  TG: 28.2 mg/dL
  TP: 5.4 g/dL
  gamma-GTP: 1.2 IU/L
[5]
  TERMINAL_BW: 206.2 g
  APTT: 16.5 s
  Bas: 0%
  Eos: 1%
  Fbg: 267.8 mg/dL
  Hb: 13 g/dL
  Ht: 40.5%
  Lym: 65.6%
  MCH: 20.8 pg
  MCHC: 32.2%
  MCV: 64.5 fL
  Mono: 3.8%
  Neu: 29%
  PT: 13.9 s
  Plat: 133.1 x10_4/uL
  RBC: 629 x10_4/ul
  Ret: 8.8%
  WBC: 87.9 x10_2/uL
  KIDNEY_L: 0.9 g
  KIDNEY_R: 0.9 g
  KIDNEY_TOTAL: 1.8 g
  LIVER: 9.3 g
  ALP: 2046.4 IU/L
  ALT: 44.4 IU/L
  AST: 70.8 IU/L
  BUN: 14.6 mg/dL
  CRE: 0.2 mg/dL
  Ca: 10.6 mg/dL
  Cl: 109.4 meq/L
  DBIL: 0.016 mg/dL
  GLC: 177 mg/dL
  IP: 7.4 mg/dL
  K: 4.4 meq/L
  LDH: 82.6 IU/L
  Na: 146 meq/L
  PL: 132.8 mg/dL
  RALB: 2.6 g/dL
  TBIL: 0.03 mg/dL
  TC: 68.4 mg/dL
  TG: 87.8 mg/dL
  TP: 5.5 g/dL
  gamma-GTP: 1.2 IU/L
300 mg/kg, 3 h, dose level Middle
  TERMINAL_BW: 203.9 g
